In patent publication US7208506B2, “Heteroarylethenyl derivatives, their manufacture and use as pharmaceutical agents” (Hoffmann-La Roche Inc., priority 2005, dated 2007):
Structures can show the parent of a compound that is named as a salt.

Test system: HCT 116 cells
Assay: CellTiter-Glo Luminescent Cell Viability Assay in HCT 116 cells
Assay type: cell-based
Details: Homo sapiens, HCT-116, 120 h, HCT 116 human colon carcinoma cell viability, 120 h (5 days) incubation, 10 concentrations 30 μM to 0.0015 μM, triplicate
Source text: CellTiter-Glo™ Assay in HCT 116 Cells
The CellTiter-Glo™ Luminescent Cell Viability Assay (Promega) is a homogeneous method of determining the number of viable cells in culture based on quantitation of the ATP present, which signals the presence of metabolically active cells.
HCT 116 cells (human colon carcinoma, ATCC-No. CCl1-247) were cultivated in RPMI 1640 medium with GlutaMAX™ I (Invitrogen, Cat-No. 61870-010), 2.5% Fetal Calf Serum (FCS, Sigma Cat-No. F4135 (FBS)); 100 Units/ml penicillin/100 μg/ml streptomycin (=Pen/Strep from Invitrogen Cat. No. 15140). For the assay the cells were seeded in 384 well plates, 1000 cells per well, in the same medium. The next day the test compounds were added in various concentrations ranging from 30 μM to 0.0015 μM (10 concentrations, 1:3 diluted). After 5 days the CellTiter-Glo™ assay was done according to the instructions of the manufacturer (CellTiter-Glo™ Luminescent Cell Viability Assay, from Promega). In brief: the cell-plate was equilibrated to room temperature for approximately 30 minutes and than the CellTiter-Glo™ reagent was added. The contents were carefully mixed for 15 minutes to induce cell lysis. After 45 minutes the luminescent signal was measured in Victor 2, (scanning multiwell spectrophotometer, Wallac).
Medium: RPMI 1640 with GlutaMAX™ I (Invitrogen, Cat-Nr. 61870), 5% FCS (Sigma Cat.-No. F4135), Pen/Strep (Invitrogen, Cat No. 15140).
HCT116 (ATCC-No. CCl-247): 1000 cells in 60 μl per well of 384 well plate (Greiner 781098, μClear-plate white)
After seeding incubate plates 24 h at 37° C., 5% CO2
2nd. Day: Induction (Treatment with Compounds, 10 Concentrations):
In order to achieve a final concentration of 30 μM as highest concentration 3,5 μl of 10 mM compound stock solution were added directly to 163 μl media. Then step e) of the dilution procedure described below, was followed.
In order to achieve the second highest to the lowest concentrations, a serial dilution with dilution steps of 1:3 was followed according to the procedure (a–e) as described here below: • a) for the second highest concentration add 10 μl of 10 mM stock solution of compound to 20 μl dimethylsulfoxide (DMSO) • b) dilute 8×1:3 (always 10 μl to 20 μl DMSO) in this DMSO dilution row (results in 9 wells with concentrations from 3333.3 μM to 0.51 μM) • c) dilute each concentration 1: 47.6 (3.5 μl compound dilution to 163 μl media) • e) add 10 μl of every concentration to 60 μl media in the cell plate resulting in final concentration of DMSO : 0.3% in every well and resulting in 10 final concentration of compounds ranging from 30 μM to 0.0015 μM. • Each compound is tested in triplicate. • Incubate 120 h (5 days) at 37° C., 5% CO2
Analysis: • Add 30 μl CellTiter-Glo™ Reagent per well, • shake 15 minutes at room temperature • incubate further 45 minutes at room temperature without shaking
Measurement: • Victor 2 scanning multiwell spectrophotometer (Wallac), Luminescence mode (0.5 sec/read, 477 nm) • Determine IC50 using a non-linear curve fit (XLfit software (ID Business Solution Ltd., Guilford, Surrey, UK))

Row | SMILES | IC50 [µM]
1 | Cc1cc(Br)ccc1C(=O)NS(=O)(=O)/C=C/c1ccsc1 [Example 3-5, (E)-2-Thiophen-3-yl-ethenesulfonic acid 4-bromo-2-methyl-benzoylamide; sodium salt] | 0.5 to 15
2 | COc1cc(Cl)ccc1C(=O)NS(=O)(=O)/C=C/c1cccs1 [Example 3-1, (E)-2-Thiophen-2-yl-ethenesulfonic acid 4-chloro-2-methoxy-benzoylamide; sodium salt] | 0.5 to 15
3 | Cc1cccc(/C=C/S(=O)(=O)NC(=O)c2ccc(F)cc2Cl)n1 [Example 2-25, (E)-2-(6-Methyl-pyridin-2-yl)-ethenesulfonic acid 2-chloro-4-fluoro-benzoylamide; sodium salt] | 0.5 to 15
4 | O=C(NS(=O)(=O)/C=C/c1ccsc1)c1ccc(F)cc1Br [Example 3-9, (E)-2-Thiophen-3-yl-ethenesulfonic acid 2-bromo-4-fluoro-benzoylamide; sodium salt] | 0.5 to 15
5 | O=C(NS(=O)(=O)/C=C/c1cccnc1Cl)c1ccc(Cl)cc1Cl [Example 2-21, (E)-2-(2-Chloro-pyridin-3-yl)-ethenesulfonic acid 2,4-dichloro-benzoylamide; sodium salt] | 0.5 to 15
6 | Cc1csc(/C=C/S(=O)(=O)NC(=O)c2ccc(Cl)cc2Cl)c1 [Example 1-10, (E)-2-(4-Methyl-thiophen-2-yl)-ethenesulfonic acid 2,4-dichloro-benzoylamide] | 0.5 to 15
7 | O=C(NS(=O)(=O)/C=C/c1cccnc1)c1ccc(C(F)(F)F)cc1C(F)(F)F [Example 2-14, (E)-2-Pyridin-3-yl-ethenesulfonic acid 2,4-bis-trifluoromethyl-benzoylamide; sodium salt] | 0.5 to 15
8 | O=C(NS(=O)(=O)/C=C/c1csc2ccccc12)c1ccc(F)cc1Cl [Example 2-26, (E)-2-Benzo[b]thiophen-3-yl-ethenesulfonic acid 2-chloro-4-fluoro-benzoylamide; sodium salt] | 0.5 to 15
9 | Cc1ccc(C(=O)NS(=O)(=O)/C=C/c2cccs2)c(C)c1 [Example 3-13, (E)-2-Thiophen-2-yl-ethenesulfonic acid 2,4-dimethyl-benzoylamide; sodium salt] | 0.5 to 15
10 | O=C(NS(=O)(=O)/C=C/c1ccsc1)c1ccc(C(F)(F)F)cc1C(F)(F)F [Example 1-6, (E)-2-Thiophen-3-yl-ethenesulfonic acid 2,4-bis-trifluoromethyl-benzoylamide; sodium salt] | 0.5 to 15
11 | O=C(NS(=O)(=O)/C=C/c1ccsc1)c1ccc(F)cc1C(F)(F)F [Example 1-5, (E)-2-Thiophen-3-yl-ethenesulfonic acid 4-fluoro-2-trifluoromethyl-benzoylamide; sodium salt] | 0.5 to 15
12 | O=C(NS(=O)(=O)/C=C/c1csc2ccccc12)c1ccc(Cl)cc1Cl [Example 2-27, (E)-2-Benzo[b]thiophen-3-yl-ethenesulfonic acid 2,4-dichloro-benzoylamide; sodium salt] | 0.5 to 15

Next, values leading:

Row | IC50 [µM] | SMILES
13 | 0.5 to 15 | Cc1cc(Cl)ccc1C(=O)NS(=O)(=O)/C=C/c1csc2ccccc12 [Example 4-18, (E)-2-Benzo[b]thiophen-3-yl-ethenesulfonic acid 4-chloro-2-methyl-benzoylamide; sodium salt]
14 | 0.5 to 15 | Cc1cccc(/C=C/S(=O)(=O)NC(=O)c2ccc(F)cc2Br)n1 [Example 4-15, (E)-2-(6-Methyl-pyridin-2-yl)-ethenesulfonic acid 2-bromo-4-fluoro-benzoylamide; sodium salt]
15 | 0.5 to 15 | COc1ccc(/C=C/S(=O)(=O)NC(=O)c2ccc(Cl)cc2C)cn1 [Example 4-12, (E)-2-(6-Methoxy-pyridin-3-yl)-ethenesulfonic acid 4-chloro-2-methyl-benzoylamide; sodium salt]
16 | 0.5 to 15 | O=C(NS(=O)(=O)/C=C/c1ccccn1)c1ccc(F)cc1Br [Example 4-6, (E)-2-Pyridin-2-yl-ethenesulfonic acid 2-bromo-4-fluoro-benzoylamide; sodium salt]
17 | 0.5 to 15 | O=C(NS(=O)(=O)/C=C/c1ccccn1)c1ccc(Br)cc1Cl [Example 4-7, (E)-2-Pyridin-2-yl-ethenesulfonic acid 4-bromo-2-chloro-benzoylamide; sodium salt]
18 | 0.5 to 15 | Cc1cc(F)ccc1C(=O)NS(=O)(=O)/C=C/c1cccs1 [Example 5-1, (E)-2-Thiophen-2-yl-ethenesulfonic acid 4-fluoro-2-methyl-benzoylamide]
